Values joined by “and” are separate entries in the source; they are usually repeats but may differ in a detail not shown here. Equal entries are not always repeated.
Legend:
[1] = Liquid, Falling or rolling sphere viscometry
[2] = Solid-liquid equilibrium temperature; conditions: Crystal, visual observation

CCCCCCCCCCCCCCCCCCCC [eicosane]
[1]
Conditions | viscosity
325.8 K, 6700 kPa | 3.184 mPa·s and 3.193 mPa·s
325.8 K, 14400 kPa | 3.511 mPa·s and 3.528 mPa·s
325.8 K, 21300 kPa | 3.828 mPa·s
325.8 K, 22300 kPa | 3.908 mPa·s
325.8 K, 28700 kPa | 4.25 mPa·s
325.8 K, 35500 kPa | 4.642 mPa·s
429.3 K, 5500 kPa | 0.837 mPa·s
429.3 K, 7400 kPa | 0.858 mPa·s
429.3 K, 21800 kPa | 1.029 mPa·s
429.3 K, 41800 kPa | 1.262 mPa·s
429.3 K, 63000 kPa | 1.498 mPa·s and 1.523 mPa·s
429.3 K, 83000 kPa | 1.777 mPa·s
429.3 K, 103700 kPa | 2.043 mPa·s
429.3 K, 125000 kPa | 2.351 mPa·s
429.3 K, 144500 kPa | 2.631 mPa·s
429.3 K, 144700 kPa | 2.638 mPa·s
429.3 K, 167900 kPa | 2.988 mPa·s
429.3 K, 187900 kPa | 3.321 mPa·s
429.3 K, 208900 kPa | 3.685 mPa·s
429.3 K, 228600 kPa | 4.04 mPa·s
429.3 K, 243100 kPa | 4.327 mPa·s
533.8 K, 6200 kPa | 0.346 mPa·s
533.8 K, 22900 kPa | 0.425 mPa·s
533.8 K, 43300 kPa | 0.541 mPa·s
533.8 K, 43500 kPa | 0.541 mPa·s
533.8 K, 63200 kPa | 0.647 mPa·s
533.8 K, 84300 kPa | 0.75 mPa·s
533.8 K, 104400 kPa | 0.861 mPa·s
533.8 K, 125000 kPa | 0.977 mPa·s
533.8 K, 146100 kPa | 1.097 mPa·s
533.8 K, 165900 kPa | 1.199 mPa·s
533.8 K, 187300 kPa | 1.341 mPa·s
533.8 K, 208200 kPa | 1.444 mPa·s
533.8 K, 228800 kPa | 1.556 mPa·s

[2]
Conditions | Solid-liquid equilibrium temperature [K]
21600 kPa | 315.6
61500 kPa | 325.3
105500 kPa | 334.8
153800 kPa | 344.6
218800 kPa | 355.9
263800 kPa | 364.3

CCCCCCCCCCCCCCCCCC [octadecane]
[1]
Conditions | viscosity
325.6 K, 9800 kPa | 2.598 mPa·s
325.6 K, 16400 kPa | 2.778 mPa·s
325.6 K, 29600 kPa | 3.247 mPa·s
325.6 K, 37200 kPa | 3.568 mPa·s
325.6 K, 51000 kPa | 4.157 mPa·s
325.6 K, 60500 kPa | 4.578 mPa·s
325.6 K, 69000 kPa | 4.98 mPa·s
325.6 K, 70800 kPa | 5.095 mPa·s
428.9 K, 6800 kPa | 0.685 mPa·s
428.9 K, 21900 kPa | 0.831 mPa·s
428.9 K, 42100 kPa | 1.023 mPa·s
428.9 K, 63400 kPa | 1.232 mPa·s
428.9 K, 84300 kPa | 1.446 mPa·s
428.9 K, 104900 kPa | 1.649 mPa·s
428.9 K, 125500 kPa | 1.878 mPa·s
428.9 K, 147800 kPa | 2.125 mPa·s
428.9 K, 168000 kPa | 2.392 mPa·s
428.9 K, 188600 kPa | 2.65 mPa·s
428.9 K, 209600 kPa | 2.928 mPa·s
428.9 K, 230000 kPa | 3.207 mPa·s
428.9 K, 243100 kPa | 3.396 mPa·s
533.9 K, 9200 kPa | 0.303 mPa·s
533.9 K, 9500 kPa | 0.305 mPa·s
533.9 K, 15200 kPa | 0.336 mPa·s
533.9 K, 22500 kPa | 0.38 mPa·s
533.9 K, 44600 kPa | 0.497 mPa·s
533.9 K, 64000 kPa | 0.579 mPa·s
533.9 K, 85700 kPa | 0.686 mPa·s
533.9 K, 105900 kPa | 0.784 mPa·s
533.9 K, 126600 kPa | 0.88 mPa·s
533.9 K, 147600 kPa | 0.975 mPa·s and 0.985 mPa·s
533.9 K, 167700 kPa | 1.077 mPa·s
533.9 K, 188600 kPa | 1.201 mPa·s
533.9 K, 209100 kPa | 1.313 mPa·s
533.9 K, 229300 kPa | 1.411 mPa·s
533.9 K, 242900 kPa | 1.491 mPa·s

[2]
Conditions | Solid-liquid equilibrium temperature [K]
59900 kPa | 315.2
102800 kPa | 324.6
151000 kPa | 334.8
205400 kPa | 344.7
256400 kPa | 354.2

CCCCCCCCCCCCCCCC [hexadecane]
[1]
Conditions | viscosity
303.9 K, 3300 kPa | 2.826 mPa·s
303.9 K, 7300 kPa | 2.959 mPa·s
303.9 K, 12900 kPa | 3.184 mPa·s
303.9 K, 19000 kPa | 3.454 mPa·s
303.9 K, 26800 kPa | 3.793 mPa·s
303.9 K, 33600 kPa | 4.107 mPa·s
325.7 K, 8100 kPa | 1.943 mPa·s
325.7 K, 8300 kPa | 1.956 mPa·s
325.7 K, 21500 kPa | 2.263 mPa·s
325.7 K, 35600 kPa | 2.675 mPa·s
325.7 K, 49300 kPa | 3.067 mPa·s
325.7 K, 63600 kPa | 3.55 mPa·s
325.7 K, 77500 kPa | 4.056 mPa·s
325.7 K, 91800 kPa | 4.625 mPa·s
325.7 K, 104100 kPa | 5.179 mPa·s
325.7 K, 119200 kPa | 5.865 mPa·s
325.7 K, 122700 kPa | 6.07 mPa·s
429.1 K, 12800 kPa | 0.582 mPa·s and 0.586 mPa·s
429.1 K, 22200 kPa | 0.649 mPa·s
429.1 K, 22700 kPa | 0.65 mPa·s
429.1 K, 35800 kPa | 0.742 mPa·s
429.1 K, 70500 kPa | 1.01 mPa·s
429.1 K, 91600 kPa | 1.181 mPa·s
429.1 K, 118800 kPa | 1.405 mPa·s
429.1 K, 140300 kPa | 1.594 mPa·s
429.1 K, 167800 kPa | 1.847 mPa·s
429.1 K, 188000 kPa | 2.046 mPa·s
429.1 K, 222900 kPa | 2.459 mPa·s
533.7 K, 14100 kPa | 0.272 mPa·s
533.7 K, 14300 kPa | 0.276 mPa·s
533.7 K, 29900 kPa | 0.341 mPa·s
533.7 K, 30100 kPa | 0.342 mPa·s
533.7 K, 50400 kPa | 0.43 mPa·s
533.7 K, 50500 kPa | 0.433 mPa·s
533.7 K, 77100 kPa | 0.534 mPa·s
533.7 K, 104600 kPa | 0.642 mPa·s
533.7 K, 125000 kPa | 0.721 mPa·s
533.7 K, 152800 kPa | 0.829 mPa·s
533.7 K, 188400 kPa | 0.983 mPa·s
533.7 K, 210000 kPa | 1.077 mPa·s
533.7 K, 226600 kPa | 1.154 mPa·s

[2]
Conditions | Solid-liquid equilibrium temperature [K]
54300 kPa | 303.6
106300 kPa | 314.5
158900 kPa | 325
210600 kPa | 333.9
267700 kPa | 344.4
